Data as given in ChEMBL document CHEMBL1128084, “A general method for synthesis of ether phospholipids with -linolenic acid and their properties” (Bioorg Med Chem Lett, 1995).

Experiment: Inhibiting aggregation of rabbit platelet induced by platelet-activating factor
Conditions: Oryctolagus cuniculus; concentration not given here

SMILES: CC/C=C/C/C=C/C/C=C/CCCCCCCCC(=O)O[C@@H](COCCCCCCCCCCCCCCCC)COP(=O)([O-])OCC[N+](C)(C)C
- inhibition: 4.3%
